The record followed here is patent US20250304620A1, “ANTIMICROBIAL PEPTIDE AND APPLICATION THEREOF” (priority 2023, published 2025).

Where two headings read alike, the source gives them in different places. Marks after values point to notes of the source that are not given here. Non-standard residues stand in square brackets, D forms with d. PEG2000 = polyethylene glycol 2000, conjugated to the N-terminus; PEG4000 = polyethylene glycol 4000, conjugated to the C-terminus; 2Nal = N[C@@H](Cc1ccc2ccccc2c1)C(=O)O

What all share (assay type): in vivo, ICR mice
The subject of experiment [1] is Methicillin-sensitive Staphylococcus aureus (NRS 384). The conditions noted are these: 0.1 mL twice a day for 4 days, mouse back skin infection. How it is done: (§1) Both female and male ICR mice were used in the test, half of the female and male mice were taken and randomly assigned into groups, with 10 mice in each group, and kept in separate cages. The mice were divided into a blank group, a model group, a positive control Methicillin group, and topical formulation groups of AMPs LV-1 to LV-30. Suspensions of Methicillin-sensitive Staphylococcus aureus (NRS 384) and Methicillin-resistant Staphylococcus aureus (MRSA) were prepared, and their concentrations were adjusted to a concentration of 5×10^6 CFU/mL for subsequent use. Hair on backs of the mice was shaved with a shaver, wound was created on back skin of each mouse using a biopsy punch, and the wound was then infected with Methicillin-sensitive Staphylococcus aureus and Methicillin-resistant Staphylococcus aureus (0.1 mL, 5×10^6 CFU/mL) to establish infection models. Except for the blank group and the model group, all other groups received corresponding topical formulations applied directly to the infected areas, with a dose of 0.1 mL, twice a day for 4 consecutive days. On the day following the final administration, skin from the infected sites of each group was aseptically collected, and an antibacterial rate was calculated.

In experiment [2] the test system is Methicillin-resistant Staphylococcus aureus (MRSA). The conditions noted are these: 0.1 mL twice a day for 4 days, mouse back skin infection. How it is done: as §1
Experiment [3] has as its system Escherichia coli ATCC 25922. The experiment is described as follows: Oral formulations on mice with systemic bacterial infection. The conditions noted are these: 1 mg/kg gavage, three times a day for 7 days, n = 10; for Average survival times (Days): observed for 14 d. In short, it runs like this: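 Survival time and deaths were logged over a 14 d observation after oral gavage dosing (by body weight, thrice daily, 7 days, starting right after infection). Model: mixed-sex ICR mice, n=10 per group, intraperitoneal injection of E. coli ATCC 25922 suspension (0.2 mL, 1×10^7 CFU/mL).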

Consider “Ac-RKLLXRLKXRK-PEG4000 [LV-30] (Ac-RKLL[2Nal]RLK[2Nal]RK-PEG4000) [polyethylene glycol 4000 conjugated to C-terminal; X=3-(2-naphthyl)-alanine]”, for which the “Inhibition rate against Methicillin-sensitive Staphylococcus aureus (%)” value in experiment [1] (topical formulation 0.2 mg/mL) came out at 96.07%. Besides, the “Inhibition rate against Methicillin-sensitive Staphylococcus aureus (%)” value in experiment [1] (topical formulation 1 mg/mL) is listed as 96.91%. In addition, the “Inhibition rate against Methicillin-sensitive Staphylococcus aureus (%)” value in experiment [1] (topical formulation 5 mg/mL) is given as 98.24%. The “Inhibition rate against Methicillin-resistant Staphylococcus aureus (%)” value in experiment [2] (topical formulation 0.2 mg/mL) was 86.10%. The “Inhibition rate against Methicillin-resistant Staphylococcus aureus (%)” value in experiment [2] (topical formulation 1 mg/mL) is recorded as 87.85%. Also, the “Inhibition rate against Methicillin-resistant Staphylococcus aureus (%)” value in experiment [2] (topical formulation 5 mg/mL) was 88.93%. Moreover, in experiment [3], the “Number of mice that died on each day after infection: day 4” value came to 1 Mouse, the “Number of mice that died on each day after infection: day 5” value was determined as 1 Mouse, the “Number of mice that died on each day after infection: day 6” value is listed as 3 Mouse and the “Number of mice that died on each day after infection: day 7” value stood at 0 Mouse. Also, in experiment [3], the “Number of mice that died on each day after infection: day 8” value was determined as 1 Mouse and the “Average survival times (Days)” value was 9.1** Days.
As for “PEG2000-RKLLXRLKXRK-NH2 [LV-29] (PEG2000-RKLL[2Nal]RLK[2Nal]RK-NH2) [polyethylene glycol 2000 conjugated to N-terminal; X=3-(2-naphthyl)-alanine]”, the “Inhibition rate against Methicillin-sensitive Staphylococcus aureus (%)” value in experiment [1] (topical formulation 0.2 mg/mL) came to 96.49%. The “Inhibition rate against Methicillin-sensitive Staphylococcus aureus (%)” value in experiment [1] (topical formulation 1 mg/mL) came out at 97.11%. For the same substance, in experiment [1] (topical formulation 5 mg/mL), the “Inhibition rate against Methicillin-sensitive Staphylococcus aureus (%)” value amounted to 98.65%. Besides, the “Inhibition rate against Methicillin-resistant Staphylococcus aureus (%)” value in experiment [2] (topical formulation 0.2 mg/mL) came out at 86.34%. Also, in experiment [2] (topical formulation 1 mg/mL), the “Inhibition rate against Methicillin-resistant Staphylococcus aureus (%)” value is 87.29%. Also, the “Inhibition rate against Methicillin-resistant Staphylococcus aureus (%)” value in experiment [2] (topical formulation 5 mg/mL) came to 88.16%. Moreover, in experiment [3], the “Number of mice that died on each day after infection: day 4” value is 0 Mouse, the “Number of mice that died on each day after infection: day 5” value is on record as 1 Mouse, the “Number of mice that died on each day after infection: day 6” value came out at 2 Mouse and the “Number of mice that died on each day after infection: day 7” value is 1 Mouse. For the same substance, in experiment [3], the “Number of mice that died on each day after infection: day 8” value was determined as 1 Mouse and the “Average survival times (Days)” value is on record as 10.2*** Days.
